Reference: PMC10743905, “Design, Synthesis, and In Vitro and In Vivo Bioactivity Studies of Hydrazide–Hydrazones of 2,4-Dihydroxybenzoic Acid” (International Journal of Molecular Sciences, 2023)
In brackets after ≈: the same amount, converted by molar mass. Like-named read-outs stand apart in the source and are kept apart here.

Legend:
Format in all cases: cell-based
[1] = system: Bordetella bronchiseptica ATCC 4617; assay: Broth microdilution MIC/MBC; settings: for MIC / MBC: ATCC4617
Method in brief: (§1)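 Strains were subcultured on nutrient or Sabouraud agar, suspended to 0.5 McFarland in saline, then added to wells holding two-fold compound dilutions. Final concentrations ranged 1000 to 0.488 µg/ml in Mueller-Hinton broth or RPMI 1640 with MOPS.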

[2] = system: Escherichia coli ATCC 25922; assay: Broth microdilution MIC/MBC; settings: for MIC / MBC: ATCC25922
Method in brief: as §1

[3] = system: Enterococcus faecalis ATCC 29212; assay: Broth microdilution MIC/MBC; settings: for MIC: ATCC29212, read-out: MIC; for MBC: ATCC29212, read-out: MBC
Method in brief: as §1

[4] = system: Klebsiella pneumoniae ATCC 13883; assay: Broth microdilution MIC/MBC; settings: for MIC / MBC: ATCC13883
Method in brief: as §1

[5] = system: Bacillus cereus ATCC 10876; assay: Broth microdilution MIC/MBC; settings: for MBC: ATCC10876
Method in brief: as §1

[6] = system: Bacillus subtilis ATCC 6633; assay: Broth microdilution MIC/MBC; settings: for MBC: ATCC6633
Method in brief: as §1

[7] = system: Pseudomonas aeruginosa ATCC 9027; assay: Broth microdilution MIC/MBC; settings: for MIC / MBC: ATCC9027
Method in brief: as §1

[8] = system: Staphylococcus epidermidis ATCC 12228; assay: Broth microdilution MIC/MBC; settings: for MBC: ATCC12228
Method in brief: as §1

[9] = system: Candida albicans ATCC 10231; assay: Broth microdilution MIC/MFC; settings: for MFC: ATCC10231, read-out: MFC; for MIC: ATCC10231, read-out: MIC
Method in brief: as §1

[10] = system: Candida parapsilosis ATCC 22019; assay: Broth microdilution MIC/MFC; settings: for MFC / MIC: Lodderomyces parapsilosis; for MFC: ATCC22019, read-out: MFC; for MIC: ATCC22019, read-out: MIC
Method in brief: as §1

[11] = system: Candida krusei ATCC 14243; assay: Broth microdilution MIC/MFC; settings: for MIC: ATCC14243, read-out: MIC
Method in brief: as §1

[12] = system: Candida albicans ATCC 2091; assay: Broth microdilution MIC/MFC; settings: for MIC: ATCC2091, read-out: MIC; for MFC: ATCC2091, read-out: MFC
Method in brief: as §1

[13] = system: Candida glabrata ATCC 90030; assay: Broth microdilution MIC/MFC; settings: for MIC / MFC: Nakaseomyces glabratus; for MIC: ATCC90030, read-out: MIC; for MFC: ATCC90030, read-out: MFC
Method in brief: as §1

O=C(N/N=C/c1cccc([N+](=O)[O-])c1)c1ccc(O)cc1O [Compound 20, 2,4-dihydroxy-N-[(3-nitrophenyl)methylidene]benzohydrazide]
MIC [1]: > 1000 µg/mL
MIC [2]: > 1000 µg/mL
MIC [3]: > 1000 µg/mL
MIC [4]: > 1000 µg/mL
MIC ([5]; ATCC10876, read-out: MIC): > 1000 µg/mL
MBC/MIC [6]: > 4
MBC [6]: > 1000 µg/mL
MIC ([6]; ATCC6633, read-out: MIC): 250 µg/mL (≈ 830 µM)
MIC [7]: > 1000 µg/mL
MIC ([8]; ATCC12228, read-out: MIC): > 1000 µg/mL
MFC/MIC [9]: > 1
MFC [9]: > 1000 µg/mL
MIC [9]: 1000 µg/mL (≈ 3320 µM)
MFC/MIC [10]: > 1
MFC [10]: > 1000 µg/mL
MIC [10]: 1000 µg/mL (≈ 3320 µM)
MIC ([11]; Pichia kudriavzevii): > 1000 µg/mL
MIC [12]: > 1000 µg/mL
MIC [13]: > 1000 µg/mL

O=C(N/N=C/c1ccccc1Br)c1ccc(O)cc1O [Compound 23, N-[(2-bromophenyl)methylidene]-2,4-dihydroxybenzohydrazide]
MIC [1]: > 1000 µg/mL
MIC [2]: > 1000 µg/mL
MIC [3]: > 1000 µg/mL
MIC [4]: > 1000 µg/mL
MIC ([5]; ATCC10876, read-out: MIC): > 1000 µg/mL
MIC ([6]; ATCC6633, read-out: MIC): > 1000 µg/mL
MIC [7]: > 1000 µg/mL
MBC/MIC [8]: > 2
MBC [8]: > 1000 µg/mL
MIC ([8]; ATCC12228, read-out: MIC): 500 µg/mL (≈ 1490 µM)
MFC/MIC [9]: > 1
MFC [9]: > 1000 µg/mL
MIC [9]: 1000 µg/mL (≈ 2980 µM)
MFC/MIC [10]: > 1
MFC [10]: > 1000 µg/mL
MIC [10]: 1000 µg/mL (≈ 2980 µM)
MIC ([11]; Pichia kudriavzevii): > 1000 µg/mL
MFC/MIC [12]: > 1
MFC [12]: > 1000 µg/mL
MIC [12]: 1000 µg/mL (≈ 2980 µM)
MIC [13]: > 1000 µg/mL

CCCc1ccc(/C=N/NC(=O)c2ccc(O)cc2O)cc1 [Compound 13, 2,4-dihydroxy-N-[(4-propylphenyl)methylidene]benzohydrazide]
MBC/MIC [1]: > 1
MBC [1]: > 1000 µg/mL
MIC [1]: 1000 µg/mL (≈ 3350 µM)
MBC/MIC [2]: > 1
MBC [2]: > 1000 µg/mL
MIC [2]: 1000 µg/mL (≈ 3350 µM)
MBC/MIC [3]: > 1
MBC [3]: > 1000 µg/mL
MIC [3]: 1000 µg/mL (≈ 3350 µM)
MBC/MIC [4]: > 1
MBC [4]: > 1000 µg/mL
MIC [4]: 1000 µg/mL (≈ 3350 µM)
MBC/MIC [5]: > 1
MBC [5]: > 1000 µg/mL
MIC ([5]; ATCC10876, read-out: MIC): 1000 µg/mL (≈ 3350 µM)
MBC/MIC [6]: > 1
MBC [6]: > 1000 µg/mL
MIC ([6]; ATCC6633, read-out: MIC): 1000 µg/mL (≈ 3350 µM)
MBC/MIC [7]: > 1
MBC [7]: > 1000 µg/mL
MIC [7]: 1000 µg/mL (≈ 3350 µM)
MBC/MIC [8]: > 1
MBC [8]: > 1000 µg/mL
MIC ([8]; ATCC12228, read-out: MIC): 1000 µg/mL (≈ 3350 µM)
MFC/MIC [9]: > 1
MFC [9]: > 1000 µg/mL
MIC [9]: 1000 µg/mL (≈ 3350 µM)
MFC/MIC [10]: > 1
MFC [10]: > 1000 µg/mL
MIC [10]: 1000 µg/mL (≈ 3350 µM)
MIC ([11]; Pichia kudriavzevii): > 1000 µg/mL
MIC [12]: > 1000 µg/mL
MFC/MIC [13]: > 1
MFC [13]: > 1000 µg/mL
MIC [13]: 1000 µg/mL (≈ 3350 µM)

O=C(N/N=C/c1cc(I)cc(I)c1O)c1ccc(O)cc1O [Compound 18, 2,4-dihydroxy-N-[(2-hydroxy-3,5-diiodophenyl)methylidene]benzohydrazide]
MBC/MIC [1]: > 2
MBC [1]: > 1000 µg/mL
MIC [1]: 500 µg/mL (≈ 954 µM)
MBC/MIC [2]: > 2
MBC [2]: > 1000 µg/mL
MIC [2]: 500 µg/mL (≈ 954 µM)
MBC/MIC [3]: 4
MBC [3]: 15.6 µg/mL (≈ 29.8 µM)
MIC [3]: 3.91 µg/mL (≈ 7.46 µM)
MBC/MIC [4]: > 2
MBC [4]: > 1000 µg/mL
MIC [4]: 500 µg/mL (≈ 954 µM)
MBC/MIC [5]: 4
MIC [5]: 3.91 µg/mL (≈ 7.46 µM)
MBC [5]: 15.6 µg/mL (≈ 29.8 µM)
MIC ([5]; ATCC10876, read-out: MIC): 3.91 µg/mL (≈ 7.46 µM)
MBC/MIC [6]: 2
MIC [6]: 1.95 µg/mL (≈ 3.72 µM)
MBC [6]: 3.91 µg/mL (≈ 7.46 µM)
MIC ([6]; ATCC6633, read-out: MIC): 1.95 µg/mL (≈ 3.72 µM)
MBC/MIC [7]: > 1
MBC [7]: > 1000 µg/mL
MIC [7]: 1000 µg/mL (≈ 1910 µM)
MBC/MIC [8]: 8
MIC [8]: 0.98 µg/mL (≈ 1.87 µM)
MBC [8]: 7.81 µg/mL (≈ 14.9 µM)
MIC ([8]; ATCC12228, read-out: MIC): 0.98 µg/mL (≈ 1.87 µM)
MFC/MIC [9]: > 1
MFC [9]: > 1000 µg/mL
MIC [9]: 1000 µg/mL (≈ 1910 µM)
MFC/MIC [10]: > 2
MFC [10]: > 1000 µg/mL
MIC [10]: 500 µg/mL (≈ 954 µM)
MFC/MIC [11]: > 1
MFC ([11]; Pichia kudriavzevii, ATCC14243, read-out: MFC): > 1000 µg/mL
MIC ([11]; Pichia kudriavzevii): 1000 µg/mL (≈ 1910 µM)
MFC/MIC [12]: > 2
MFC [12]: > 1000 µg/mL
MIC [12]: 500 µg/mL (≈ 954 µM)
MFC/MIC [13]: > 1
MFC [13]: > 1000 µg/mL
MIC [13]: 1000 µg/mL (≈ 1910 µM)
